Measured values published in ChEMBL document CHEMBL1141621, “Constraining the amide bond in N-sulfonylated dipeptide VLA-4 antagonists” (Bioorg Med Chem Lett, 2008).

How the values were obtained:
[1] = biological target: T1, Integrin alpha-4 (Homo sapiens, UniProt P13612); test: Displacement of [125I]VCAMIg from VLA4 expressed in Jurkat cells; type: cell-based
T1 sequence (P13612 whole entry): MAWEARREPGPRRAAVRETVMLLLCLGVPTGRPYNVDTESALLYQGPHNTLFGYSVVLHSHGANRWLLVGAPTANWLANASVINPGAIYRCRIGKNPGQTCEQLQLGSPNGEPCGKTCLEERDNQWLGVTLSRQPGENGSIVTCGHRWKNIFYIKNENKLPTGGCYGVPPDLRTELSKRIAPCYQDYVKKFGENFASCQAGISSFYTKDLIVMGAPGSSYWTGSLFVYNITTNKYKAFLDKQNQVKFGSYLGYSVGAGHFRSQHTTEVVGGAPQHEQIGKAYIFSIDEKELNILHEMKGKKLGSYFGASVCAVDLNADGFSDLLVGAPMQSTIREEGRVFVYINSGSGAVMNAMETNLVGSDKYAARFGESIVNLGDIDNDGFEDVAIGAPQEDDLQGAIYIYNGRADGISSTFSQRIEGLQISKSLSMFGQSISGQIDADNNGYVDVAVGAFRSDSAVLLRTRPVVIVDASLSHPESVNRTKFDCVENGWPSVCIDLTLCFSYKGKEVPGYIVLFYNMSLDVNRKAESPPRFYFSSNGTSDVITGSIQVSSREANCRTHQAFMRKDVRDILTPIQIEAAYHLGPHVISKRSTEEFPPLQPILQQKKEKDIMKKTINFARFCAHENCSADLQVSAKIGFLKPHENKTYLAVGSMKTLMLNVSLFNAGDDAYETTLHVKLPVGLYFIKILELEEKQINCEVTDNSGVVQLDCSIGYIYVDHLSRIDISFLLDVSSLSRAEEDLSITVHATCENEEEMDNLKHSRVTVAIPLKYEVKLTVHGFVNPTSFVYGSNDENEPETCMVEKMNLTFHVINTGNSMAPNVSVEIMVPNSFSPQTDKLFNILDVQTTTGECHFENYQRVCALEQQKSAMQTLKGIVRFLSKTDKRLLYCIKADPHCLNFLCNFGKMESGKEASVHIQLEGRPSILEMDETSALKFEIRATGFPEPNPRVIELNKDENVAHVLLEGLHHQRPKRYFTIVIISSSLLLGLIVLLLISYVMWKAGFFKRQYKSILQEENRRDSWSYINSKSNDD

[2] = biological target: Integrin alpha-4 (Homo sapiens) (UniProt P13612); test: Displacement of [125I]VCAMIg from VLA4 expressed in Jurkat cells at 100 uM; type: cell-based

Row | IC50 [1] | inhibition [2] | Compound
1 | 237 nM |  | O=C(O)c1nc(CN(C2CCCCC2)S(=O)(=O)c2cc(Cl)cc(Cl)c2)[nH]c1Cc1ccc(-c2ccccc2)cc1
2 | 2540 nM |  | CC(C)C(c1nc(Cc2ccc3ccccc3c2)c(C(=O)O)[nH]1)N(C)S(=O)(=O)c1cc(Cl)cc(Cl)c1 (stereo not given)
3 |  | 8% | O=C(O)c1[nH]c(C2CCCN2S(=O)(=O)c2cc(Cl)cc(Cl)c2)nc1-c1ccc2ccccc2c1 (stereo not given)
4 | 285 nM |  | O=C(O)c1[nH]c(CN(C2CCCCC2)S(=O)(=O)c2cc(Cl)cc(Cl)c2)nc1Cc1ccc2ccccc2c1
5 |  | 19% | O=C(O)c1nc(C2CCCN2S(=O)(=O)c2cc(Cl)cc(Cl)c2)sc1-c1ccc2ccccc2c1 (stereo not given)
6 |  | 30% | O=C(O)c1[nH]c(C2CCCN2S(=O)(=O)c2cc(Cl)cc(Cl)c2)nc1Cc1ccc2ccccc2c1 (stereo not given)

Continued, compound first:

Row | Compound | IC50 [1] | inhibition [2]
7 | O=C(O)C(Cc1ccccc1)N1C[C@@H]2CCN(S(=O)(=O)c3cc(Cl)cc(Cl)c3)[C@@H]2C1=O (stereo not given in full) | 2100 nM | 
8 | COc1ccccc1-c1ccc(C[C@H](NC(=O)[C@@H]2CCCN2S(=O)(=O)c2cc(Cl)cc(Cl)c2)C(=O)O)cc1 | 0.64 nM | 
9 | O=C(O)[C@H](Cc1ccccc1)NC(=O)[C@@H]1CCCN1S(=O)(=O)c1cc(Cl)cc(Cl)c1 | 1.4 nM | 
10 | O=C(O)c1[nH]c(CN(C2CCCCC2)S(=O)(=O)c2cc(Cl)cc(Cl)c2)nc1-c1ccc(-c2ccccc2)cc1 |  | 45%
